Measurements as given in patent US10828305B2 (SHANGHAI PHARMACEUTICALS HOLDING CO., LTD., priority 2016, dated 2020).
Where two headings read alike, the source gives them in different places.

Assays:
ErbB2 kinase = ErbB2 kinase (Homo sapiens, UniProt P04626); test: Enzymatic experiment on ErbB2 (HTRF kinEASE-TK); type: biochemical
In short: (§1)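 HTRF kinEASE-TK with biotinylated TK substrate in HEPES pH 7.0 buffer containing MnCl2, MgCl2 and DTT; ErbB2 at 0.06 ng/μl with 4 μM ATP, EGFR at 0.06 units/μl with 1.65 μM ATP, 30 min at room temperature after 5 min enzyme/substrate–compound preincubation. Ten-point 3-fold dilutions; Eu antibody/SA-XL665 detection, 665/620 ratio.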

EGFR kinase = EGFR kinase (Homo sapiens, UniProt P00533); test: Enzymatic experiment on EGFR (HTRF kinEASE-TK); type: biochemical
In short: as §1

N87 = test: Proliferation inhibition assay in vitro, N87 (CellTiter-Glo); type: cell-based; settings: Homo sapiens; 72 hours; read-out: IC50(nM) cell N87
In short: (§2)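 Cells were seeded at 8.8×10^4 cells/mL for BT-474 or 6.6×10^4 cells/mL for N87 and grown overnight. Compound was added at 9 concentrations in duplicate for 72 h at 37 °C, 5% CO2. Viability was measured by CellTiter-Glo.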

BT-474 = test: Proliferation inhibition assay in vitro, BT-474 (CellTiter-Glo); type: cell-based; settings: Homo sapiens, 72 hours, read-out: IC50(nM) cell BT-474
In short: as §2

[1] = system: human gastric cancer NCI-N87 xenograft; test: HER2 overexpressing human gastric cancer NCI-N87 xenograft model in nude mice; type: in vivo, Balb/c nude mice; settings: 50MPK (BID), oral, 22 days
[2] = system: human breast cancer BT-474 xenograft; settings: 50MPK (BID), oral, 20 days
[3] = ATP 4 μM, read-out: Kinase IC50 (nM) in vitro ErbB2
[4] = ATP 1.65 μM, read-out: Kinase IC50 (nM) in vitro EGFR

Chain of ErbB2 kinase (P04626 23-1255): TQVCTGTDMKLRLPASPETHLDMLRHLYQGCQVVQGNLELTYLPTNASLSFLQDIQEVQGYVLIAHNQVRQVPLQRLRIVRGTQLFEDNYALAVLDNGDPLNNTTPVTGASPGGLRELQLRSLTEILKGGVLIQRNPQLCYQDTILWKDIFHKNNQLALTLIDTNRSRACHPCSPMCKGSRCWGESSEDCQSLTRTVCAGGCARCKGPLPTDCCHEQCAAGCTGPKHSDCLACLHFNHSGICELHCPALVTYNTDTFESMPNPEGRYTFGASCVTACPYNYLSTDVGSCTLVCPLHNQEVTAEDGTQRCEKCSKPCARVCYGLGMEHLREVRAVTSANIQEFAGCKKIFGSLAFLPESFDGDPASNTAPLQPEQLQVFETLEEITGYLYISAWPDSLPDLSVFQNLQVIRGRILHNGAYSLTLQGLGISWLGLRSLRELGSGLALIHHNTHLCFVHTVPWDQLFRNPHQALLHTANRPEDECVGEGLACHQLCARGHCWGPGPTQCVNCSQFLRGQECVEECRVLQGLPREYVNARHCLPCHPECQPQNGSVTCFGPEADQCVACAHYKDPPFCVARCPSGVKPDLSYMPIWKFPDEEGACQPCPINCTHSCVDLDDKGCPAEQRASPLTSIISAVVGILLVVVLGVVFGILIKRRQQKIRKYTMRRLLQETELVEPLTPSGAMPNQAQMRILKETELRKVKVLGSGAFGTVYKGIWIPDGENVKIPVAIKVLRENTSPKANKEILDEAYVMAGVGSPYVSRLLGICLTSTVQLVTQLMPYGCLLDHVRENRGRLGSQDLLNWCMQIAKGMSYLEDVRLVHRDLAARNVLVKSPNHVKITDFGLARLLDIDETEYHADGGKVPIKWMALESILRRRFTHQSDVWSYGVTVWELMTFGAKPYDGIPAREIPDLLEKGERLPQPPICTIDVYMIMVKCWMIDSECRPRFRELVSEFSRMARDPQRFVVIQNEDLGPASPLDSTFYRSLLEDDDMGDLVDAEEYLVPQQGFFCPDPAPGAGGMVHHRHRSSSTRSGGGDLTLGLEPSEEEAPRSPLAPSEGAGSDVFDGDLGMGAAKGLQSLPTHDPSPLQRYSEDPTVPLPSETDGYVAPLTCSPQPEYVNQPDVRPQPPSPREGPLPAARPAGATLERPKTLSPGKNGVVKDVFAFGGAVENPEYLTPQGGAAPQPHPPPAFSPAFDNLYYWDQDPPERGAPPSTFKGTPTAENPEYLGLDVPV
Chain of EGFR kinase (P00533 25-1210): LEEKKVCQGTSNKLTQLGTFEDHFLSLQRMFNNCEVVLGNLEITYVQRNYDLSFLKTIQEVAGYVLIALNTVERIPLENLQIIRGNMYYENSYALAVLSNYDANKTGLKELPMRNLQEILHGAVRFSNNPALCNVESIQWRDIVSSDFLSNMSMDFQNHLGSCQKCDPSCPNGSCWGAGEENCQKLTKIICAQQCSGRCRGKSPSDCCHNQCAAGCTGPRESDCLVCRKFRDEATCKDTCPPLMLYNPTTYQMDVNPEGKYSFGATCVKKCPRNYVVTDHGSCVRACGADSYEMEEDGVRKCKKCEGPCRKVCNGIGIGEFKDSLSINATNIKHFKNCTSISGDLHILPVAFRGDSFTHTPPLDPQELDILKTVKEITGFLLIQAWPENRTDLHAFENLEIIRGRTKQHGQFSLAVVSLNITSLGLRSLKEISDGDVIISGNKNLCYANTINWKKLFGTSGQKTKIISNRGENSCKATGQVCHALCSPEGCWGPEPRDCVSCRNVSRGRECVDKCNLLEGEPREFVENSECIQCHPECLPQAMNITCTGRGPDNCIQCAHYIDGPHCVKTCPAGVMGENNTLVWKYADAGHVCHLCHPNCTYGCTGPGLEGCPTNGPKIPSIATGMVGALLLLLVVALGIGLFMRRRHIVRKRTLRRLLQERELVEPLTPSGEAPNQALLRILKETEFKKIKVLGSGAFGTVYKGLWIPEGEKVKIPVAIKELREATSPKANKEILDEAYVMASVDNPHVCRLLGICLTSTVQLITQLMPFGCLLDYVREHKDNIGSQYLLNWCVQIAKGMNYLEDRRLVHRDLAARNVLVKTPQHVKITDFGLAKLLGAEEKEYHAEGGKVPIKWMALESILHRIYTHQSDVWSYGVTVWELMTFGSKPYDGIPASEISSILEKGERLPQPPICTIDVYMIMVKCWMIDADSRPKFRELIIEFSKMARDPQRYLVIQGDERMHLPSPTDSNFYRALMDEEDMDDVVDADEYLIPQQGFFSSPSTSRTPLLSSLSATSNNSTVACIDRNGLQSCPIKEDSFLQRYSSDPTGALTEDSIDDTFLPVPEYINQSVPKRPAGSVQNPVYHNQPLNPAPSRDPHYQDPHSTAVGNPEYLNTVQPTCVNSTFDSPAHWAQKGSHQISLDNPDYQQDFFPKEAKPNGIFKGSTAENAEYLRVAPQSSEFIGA

SMILES | IC50 (ErbB2 kinase; [3]) [nM] | IC50 (EGFR kinase; [4]) [nM] | IC50 (BT-474) [nM] | IC50 (N87) [nM] | tumor volume inhibition rate (GI %) [1] [%] | tumor volume inhibition rate (GI %) [2] [%] | IC50 (ErbB2 kinase) [nM] | IC50 (EGFR kinase) [nM]
Cc1cc(Nc2ncnc3ccc(NC(=O)N4CCN(C)CC4)cc23)ccc1Oc1cc2nncn2cn1 [Embodiment 10, N-(4-((4-([1,2,4]triazolo[4,3-c]pyrimidin-7-yloxy)-3-methylphenyl)amino)quinazolin-6-yl)-4-methylpiperazine-1-carboxamide] | 12.6 | 143 | 92.3 | 200 | – | – | – | –
Cc1cc(Nc2ncnc3ccc(NC(=O)/C=C/[C@@H]4CCCN4C)cc23)ccc1Oc1cc2nncn2cn1 [Embodiment 97, (S,E)-N-(4-((4-([1,2,4]triazolo[4,3-c]pyrimidin-7-yloxy)-3-methylphenyl)amino)quinazolin-6-yl)-3-(1-methylpyrrolidin-2-yl)acrylamide] | 4.84 | 11.4 | 6.4 | 10 | – | – | – | –
CS(=O)(=O)CCNCc1ccc(-c2ccc3ncnc(Nc4ccc(OCc5cccc(F)c5)c(Cl)c4)c3c2)o1 [Lapatinib, reference compound] | – | – | – | – | 87.8 | 19.2 | – | –
CC1(C)COC(Nc2ccc3ncnc(Nc4ccc(Oc5cc6nncn6cn5)c(C(F)(F)F)c4)c3c2)=N1 [Embodiment 81, N^4-(3-trifluoromethyl-4-([1,2,4]triazolo[4,3-c]pyrimidin-7-yloxy)phenyl)-N^6-(4,4-dimethyl-4,5-dihydrooxazol-2-yl)quinazolin-4,6-diamine] | 16.6 | 51.9 | 1270 | 749 | – | – | – | –
Cc1cc(Nc2ncnc3ccc(-c4cccc(NCCS(C)(=O)=O)c4)cc23)ccc1Oc1cc2nncn2cn1 [Embodiment 115] | 5.91 | 75.9 | 58.6 | 84 | – | – | – | –
Cc1cc(Nc2ncnc3ccc(-c4ccc(CNCCS(C)(=O)=O)n4C)cc23)ccc1Oc1cc2nncn2cn1 [Embodiment 123, N-(4-([1,2,4]triazolo[4,3-c]pyrimidin-7-yloxy)-3-methylphenyl)-6-(1-methyl-5-(((2-(methylsulfonyl)ethyl)amino)methyl)-1H-pyrrol-2-yl)quinazolin-4-amine] | 4.4 | 32.8 | 219 | 429 | – | – | – | –
Cc1cc(Nc2ncnc3ccc(NC(=O)Oc4ccccc4)cc23)ccc1Oc1cc2nncn2cn1 [Embodiment 66] | – | – | 275 | 487 | – | – | 12.9 | 567

More lines, in order of falling IC50 (ErbB2 kinase; [3]), values ahead:

IC50 (ErbB2 kinase; [3]) [nM] | IC50 (EGFR kinase; [4]) [nM] | IC50 (BT-474) [nM] | SMILES | IC50 (N87) [nM] | tumor volume inhibition rate (GI %) [1] [%] | tumor volume inhibition rate (GI %) [2] [%] | IC50 (ErbB2 kinase) [nM] | IC50 (EGFR kinase) [nM]
3.8 | 96.8 | 122 | Cc1cc(Nc2ncnc3ccc(NC4=NC5(CO4)CN(C(=O)OC(C)(C)C)C5)cc23)ccc1Oc1cc2nncn2cn1 [Embodiment 26] | 130 | – | – | – | –
3.43 | 3.79 | 55.9 | Cc1cc(Nc2ncnc3ccc(NC(=O)/C=C/[C@@H]4CCCN4)cc23)ccc1Oc1cc2nncn2cn1 [Embodiment 96, (S,E)-N-(4-((4-([1,2,4]triazolo[4,3-c]pyrimidin-7-yloxy)-3-methylphenyl)amino)quinazolin-6-yl)-3-(pyrrolidin-2-yl)acrylamide] | 93.5 | – | – | – | –
3 | 89.4 | 21.8 | C=C(C)C(=O)Nc1ccc2ncnc(Nc3ccc(Oc4cc5nncn5cn4)c(C)c3)c2c1 [Embodiment 84, N-(4-((4-([1,2,4]triazolo[4,3-c]pyrimidin-7-yloxy)-3-methylphenyl)amino)quinazolin-6-yl)-methacrylamide] | 31.1 | – | – | – | –
2.99 | 3.16 | 4.8 | Cc1cc(Nc2ncnc3ccc(NC(=O)/C=C/[C@H]4CCCN4C)cc23)ccc1Oc1cc2nncn2cn1 [Embodiment 94, (R,E)-N-(4-((4-([1,2,4]triazolo[4,3-c]pyrimidin-7-yloxy)-3-methylphenyl)amino)quinazolin-6-yl)-3-(1-methylpyrrolidin-2-yl)acrylamide] | 4.7 | – | – | – | –
2.6 | 15.2 | 47.9 | Cc1cc(Nc2ncnc3ccc(NC4=NC(C)(CO)CO4)cc23)ccc1Oc1cc2nncn2cn1 (stereo not shown) [Embodiment 13, (2-((4-((4-([1,2,4]triazolo[4,3-c]pyrimidin-7-yloxy)-3-methylphenyl)amino)quinazolin-6-yl)amino)-4-methyl-4,5-dihydrooxazol-4-yl)methanol] | 204 | – | – | – | –
2.4 | 43.3 | 85.8 | Cc1coc(NC(=O)Nc2ccc3ncnc(Nc4ccc(Oc5cc6nncn6cn5)c(C)c4)c3c2)n1 [Embodiment 74, 1-(4-((4-([1,2,4]triazolo[4,3-c]pyrimidin-7-yloxy)-3-methylphenyl)amino)quinazolin-6-yl)-3-(4-methyloxazol-2-yl)urea] | 106 | – | – | – | –
1.8 | 29.5 | 12.7 | Cc1cc(Nc2ncnc3ccc(-c4ccc(CN5CCS(=O)(=O)CC5)o4)cc23)ccc1Oc1cc2nncn2cn1 [Embodiment 63] | 13 | – | – | – | –
0.44 | 0.7 | 2.2 | C=CC(=O)N1CCC(Oc2cc3c(Nc4ccc(Oc5cc6nncn6cn5)c(Cl)c4)ncnc3cc2OC)CC1 [Embodiment 92, 1-(4-((4-((4-([1,2,4]triazolo[4,3-c]pyrimidin-7-yloxy)-3-chlorophenyl)amino)-7-methoxyquinazolin-6-yl)oxy)piperidin-1-yl)prop-2-en-1-one] | 3.4 | – | – | – | –
